Test results taken from patent publication US20260053799A1, “COMPOUNDS FOR TREATING CANCER” (EVEXTA BIO, priority 2022, published 2026).
“Also recorded” adds a separate entry of the source.

Legend:
[1] = Plasma and brain concentration after dosing (blood brain barrier crossing), Table A; type: in vivo; conditions: for Concentration: dose 25 mg/kg, administered orally
Excerpt: The present disclosure also encompasses the advantageous therapeutic use of a quinazoline carboxamide azetidine compound, preferably of 4-[(S)-2-Azetidin-1-yl-1-(4-chloro-3-trifluoromethyl-phenyl)-ethylamino]-quinazoline-8-carboxylic acid amide (M2698) or a pharmaceutically acceptable polymorph, enantiomer, stereoisomer, salt, solvate or tautomer thereof, for treating a metastasized cancer, e.g., a cancer that has spread to the brain, a bone, a lung, the liver, or the central nervous system.

MCF7 tumors = experiment: Antitumor efficacy in xenograft model of SCID-CB17 mice implanted with MCF7 cells; type: in vivo; conditions: per os, qd 5 weeks
Protocol: Antitumor efficacy of anticancer compounds in a xenograft model of SCID-CB17 mice implanted with MCF7 cells, and assessment of the substrates phosphorylation.
MCF7 cells are amplified in vitro in complete medium prior implantation. 24h prior cells injection, the mice are implanted with an estrogen pellet (Innovative Research of America at 0.18 mg/pellet).
On the day of injection, cells are harvested, counted thanks to a trypan blue viability dye (acceptability cut-off ≥80% viability), and resuspended in 50:50 PBS:Matrigel at the appropriate concentration. The cells are then injected subcutaneously in the right flank at 5.10^6 cells/mouse in 200 μL PBS:Matrigel within 30 minutes after harvesting, in 120 mice. […]
In order to assess the effectiveness of the compounds on tumorigenesis, tumor volume are measured twice per week for 8 weeks and mice are weighed once per week for 8 weeks.
The sizes of the primary tumors are measured using calipers and the tumor volume (TV) is extrapolated to a sphere using the formula TV=4/3π×r3, by calculating the mean radius from the two measurements. […]

[2] = Machl et al., 2016; cited from earlier work
[3] = test system: ER+ and HER2+breast cancer; conditions: patients, cited from earlier work

Concentration ([1]; Brain) [ng/mL]	Concentration ([1]; Plasma) [ng/mL]	Ability to cross the blood brain barrier ([1]; administered orally at 25 mg/kg of body weight)	Compound	MCF7 tumor growth (tumor volume) (MCF7 tumors; M2698 20 mg/kg/day, 20 mg/kg/day)	Crosses the blood-brain barrier [2]	Tolerability ([3]; monotherapy and combined with trastuzumab or tamoxifen)	Efficacy of monotherapy ([3]; monotherapy)	MCF7 tumor growth (tumor volume) (MCF7 tumors; Elacestrant 50 mg/kg/day)
4000	1600	able to cross the blood brain barrier	NC(=O)c1cccc2c(N[C@H](CN3CCC3)c3ccc(Cl)c(C(F)(F)F)c3)ncnc12 [M2698, 4-[(S)-2-Azetidin-1-yl-1-(4-chloro-3-trifluoromethyl-phenyl)-ethylamino]-quinazoline-8-carboxylic acid amide]	strong antitumor efficacy; also recorded: strongly inhibited tumor growth	crosses the blood-brain barrier	well tolerated	modest	
			CCNCCc1ccc(CN(CC)c2cc(OC)ccc2[C@@H]2CCc3cc(O)ccc3C2)cc1 [Elacestrant, (R)-6-(2-(ethyl(4-(2-(ethylamino)ethyl)benzyl)amino)-4-methoxyphenyl)-5,6,7,8-tetrahydronaphthalen-2-ol, reference compound]					weakly inhibited
